Where “and” joins values, the source holds several entries; their conditions need not be identical. Identical values can stand only once. Records with an inconclusive call do not appear.
System: BDF1 mice, s.c. Lewis lung carcinoma, T/C %
Test: NCI In Vivo Anticancer Drug Screen. Data for tumor model Lewis Lung Carcinoma (subcutaneous) in B6D2F1 (BDF1) mice
Outline: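 Tumor-bearing mice were treated with test compound, and either survival or tumor size was recorded. Values are the treated-group measurement divided by that of the vehicle-treated control group.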

**Q.** How did the T/C (endpoint: mean tumor weight, dose: 1.9 mg/kg/injection, schedule: Q01DX011 (ip), vehicle: saline, higher = larger tumour) turn out when `COc1ccc(-c2oc3ccc(C)cc3c(=O)c2O)cc1` was run?
**A.** 91 % of control

**Q.** And the T/C (endpoint: mean tumor weight, dose: 3.9 mg/kg/injection, schedule: Q01DX011 (ip), vehicle: saline, higher = larger tumour)?
**A.** 100 % of control

**Q.** And the T/C (endpoint: mean tumor weight, dose: 7.8 mg/kg/injection, schedule: Q01DX011 (ip), vehicle: saline, higher = larger tumour)?
**A.** 80 % of control

**Q.** And the T/C (endpoint: mean tumor weight, dose: 15.6 mg/kg/injection, schedule: Q01DX010 (ip), vehicle: saline, higher = larger tumour)?
**A.** 71 % of control

**Q.** And the T/C (endpoint: mean tumor weight, dose: 15.6 mg/kg/injection, schedule: Q01DX011 (ip), vehicle: saline, higher = larger tumour)?
**A.** 67 % of control

**Q.** What about the T/C (endpoint: mean tumor weight, dose: 31.3 mg/kg/injection, schedule: Q01DX010 (ip), vehicle: saline, higher = larger tumour) of the same compound?
**A.** 82 % of control

**Q.** And the T/C (endpoint: mean tumor weight, dose: 62.5 mg/kg/injection, schedule: Q01DX010 (ip), vehicle: saline, higher = larger tumour)?
**A.** 81 % of control

**Q.** What about the T/C (endpoint: mean tumor weight, dose: 125.0 mg/kg/injection, schedule: Q01DX010 (ip), vehicle: saline, higher = larger tumour) of the same compound?
**A.** 84 % of control

**Q.** For `CCOC(C)C(/C=N/NC(N)=S)=NNC(N)=S` (stereo unspecified), which T/C (endpoint: mean tumor weight, dose: 30.0 mg/kg/injection, schedule: Q01DX011 (ip), vehicle: saline, higher = larger tumour) is on record?
**A.** 77 % of control

**Q.** And the T/C (endpoint: mean tumor weight, dose: 60.0 mg/kg/injection, schedule: Q01DX011 (ip), vehicle: saline, higher = larger tumour)?
**A.** 81 % of control

**Q.** What about the T/C (endpoint: mean tumor weight, dose: 120.0 mg/kg/injection, schedule: Q01DX011 (ip), vehicle: saline, higher = larger tumour) of the same compound?
**A.** 66 % of control

**Q.** For `CCCCCOC(CN)C(Cl)(Cl)Cl` (stereo unspecified), which T/C (endpoint: median survival time, dose: 12.5 mg/kg/injection, schedule: Q01DX009 (ip), vehicle: saline, higher = longer survival) is on record?
**A.** 100 % of control

**Q.** And the T/C (endpoint: median survival time, dose: 25.0 mg/kg/injection, schedule: Q01DX009 (ip), vehicle: saline, higher = longer survival)?
**A.** 92 % of control

**Q.** What about the T/C (endpoint: median survival time, dose: 100.0 mg/kg/injection, schedule: Q01DX009 (ip), vehicle: saline, higher = longer survival) of the same compound?
**A.** 95 % of control

**Q.** For `OC(CCl)CN1CC[N+]2(CC1)CC[N+]1(CCN(CC(O)CCl)CC1)CC2` (stereo unspecified), which T/C (endpoint: median survival time, dose: 40.0 mg/kg/injection, schedule: Q01DX009 (ip), vehicle: saline, higher = longer survival) is on record?
**A.** 107 % of control and 112 % of control

**Q.** And the T/C (endpoint: median survival time, dose: 80.0 mg/kg/injection, schedule: Q01DX009 (ip), vehicle: saline, higher = longer survival)?
**A.** 114 % of control and 121 % of control

**Q.** And the T/C (endpoint: median survival time, dose: 160.0 mg/kg/injection, schedule: Q01DX009 (ip), vehicle: saline, higher = longer survival)?
**A.** 120 % of control

**Q.** What about the T/C (endpoint: median survival time, dose: 320.0 mg/kg/injection, schedule: Q01DX009 (ip), vehicle: saline, higher = longer survival) of the same compound?
**A.** 150 % of control and 157 % of control

**Q.** `CC1CCC2(NC1)OC1CC3C4CCC5CC(OC6OC(CO)C(OC7OC(CO)C(O)C(OC8OCC(O)C(O)C8O)C7OC7OC(CO)C(O)C(O)C7O)C(O)C6O)CCC5(C)C4CCC3(C)C1C2C` (stereo unspecified) was tested. Which T/C (endpoint: mean tumor weight, dose: 5.0 mg/kg/injection, schedule: Q01DX011 (sc), vehicle: steriod suspending solution, higher = larger tumour) did it give?
**A.** 104 % of control

**Q.** And the T/C (endpoint: mean tumor weight, dose: 10.0 mg/kg/injection, schedule: Q01DX011 (sc), vehicle: steriod suspending solution, higher = larger tumour)?
**A.** 77 % of control

**Q.** And the T/C (endpoint: mean tumor weight, dose: 20.0 mg/kg/injection, schedule: Q01DX011 (sc), vehicle: steriod suspending solution, higher = larger tumour)?
**A.** 85 % of control

**Q.** What about the T/C (endpoint: mean tumor weight, dose: 40.0 mg/kg/injection, schedule: Q01DX011 (sc), vehicle: steriod suspending solution, higher = larger tumour) of the same compound?
**A.** 94 % of control

**Q.** How did the T/C (endpoint: median survival time, dose: 20.0 mg/kg/injection, schedule: Q01DX009 (ip), vehicle: saline with Tween-80, higher = longer survival) turn out when `COc1cccc(/C=C/[N+](=O)[O-])c1` was run?
**A.** 104 % of control

**Q.** Which T/C (endpoint: mean tumor weight, dose: 125.0 mg/kg/injection, schedule: Q01DX011 (ip), vehicle: saline, higher = larger tumour) does the source give for `Clc1[nH]nc2ccccc12` here?
**A.** 80 % of control and 85 % of control

**Q.** And the T/C (endpoint: mean tumor weight, dose: 250.0 mg/kg/injection, schedule: Q01DX011 (ip), vehicle: saline, higher = larger tumour)?
**A.** 45 % of control and 67 % of control

**Q.** What does the source list for `CC(=O)C1=C(O)C2(C)c3c(O)c(C)c(O)c(C(C)=O)c3OC2(Sc2ccccc2)CC1=O` (stereo unspecified)?
**A.** T/C (endpoint: median survival time, dose: 6.25 mg/kg/injection, schedule: Q01DX009 (ip), vehicle: gum acacia, higher = longer survival): 101 % of control; T/C (endpoint: median survival time, dose: 25.0 mg/kg/injection, schedule: Q01DX009 (ip), vehicle: gum acacia, higher = longer survival): 101 % of control; T/C (endpoint: median survival time, dose: 50.0 mg/kg/injection, schedule: Q01DX009 (ip), vehicle: gum acacia, higher = longer survival): 97 % of control

**Q.** Which T/C (endpoint: median survival time, dose: 0.31 mg/kg/injection, schedule: Q01DX009 (ip), vehicle: saline, higher = longer survival) does the source give for `CC(=O)C(O)N1C(=O)C=CC1=O` (stereo unspecified) here?
**A.** 100 % of control

**Q.** What about the T/C (endpoint: median survival time, dose: 0.62 mg/kg/injection, schedule: Q01DX009 (ip), vehicle: saline, higher = longer survival) of the same compound?
**A.** 98 % of control and 105 % of control and 119 % of control

**Q.** What about the T/C (endpoint: median survival time, dose: 1.25 mg/kg/injection, schedule: Q01DX009 (ip), vehicle: saline, higher = longer survival) of the same compound?
**A.** 107 % of control (2×) and 120 % of control

**Q.** What about the T/C (endpoint: median survival time, dose: 1.25 mg/kg/injection, schedule: Q02DX009 (ip), vehicle: saline, higher = longer survival) of the same compound?
**A.** 114 % of control

**Q.** What about the T/C (endpoint: median survival time, dose: 2.5 mg/kg/injection, schedule: Q01DX009 (ip), vehicle: saline, higher = longer survival) of the same compound?
**A.** 90 % of control and 107 % of control

**Q.** What about the T/C (endpoint: median survival time, dose: 2.5 mg/kg/injection, schedule: Q02DX009 (ip), vehicle: saline, higher = longer survival) of the same compound?
**A.** 104 % of control

**Q.** And the T/C (endpoint: median survival time, dose: 5.0 mg/kg/injection, schedule: Q01DX009 (ip), vehicle: saline, higher = longer survival)?
**A.** 97 % of control and 100 % of control and 120 % of control

**Q.** What about the T/C (endpoint: median survival time, dose: 5.0 mg/kg/injection, schedule: Q02DX009 (ip), vehicle: saline, higher = longer survival) of the same compound?
**A.** 105 % of control
